The results in this text go back to a melting point compilation (Tetko et al.).

In general, melting point refers to the temperature of the solid-liquid transition.

The conditions of this data set: a range is the spread between reports.

`CC(C)(C)C` gave a melting point of -17 to -16.4 °C.
On to `CCCCOC(=O)c1ccc(O)cc1`, for which the melting point is 68.5 to 72 °C.
The figure for `Oc1ccc(O)c(-c2ccccc2)c1` is 101 to 102 °C; for `Fc1c(F)c(F)c2c(F)c(F)c(F)c(F)c2c1F` it is 87 to 87.5 °C; for `CCc1cc(C)c(C)cc1C` it is -14 to -13.5 °C.
Then `C=CCBr`, with -119 °C; and `CCCCCCS`, with -81 to -80 °C; and `CC(=O)OO`, with -0.2 to 0.1 °C.
The molecule `COC(=O)c1ccccc1O` showed a melting point of -9 to -7 °C.
Then `S=C=Nc1ccc(N=C=S)cc1`, with 131 to 132 °C; and `CC(C)C(Br)C(=O)O` (stereo not drawn), with 39 to 44 °C; and `CC(C)C(C)C`, with -129 to -128 °C.
`O=C(O)C=Cc1ccc(Br)cc1` registered a melting point of 262 to 263 °C.
The figure for `Cc1cc(C)[nH]n1` is 107 to 108 °C; for `Cc1cccc2c(C)cccc12` it is 80 to 82 °C.
Then `NCCS`, with 96 to 98 °C.
The figure for `c1ccc2ncncc2c1` is 47 to 48 °C; for `Cc1ccc([N+](=O)[O-])c(O)c1` it is 53 to 55 °C.
As for `CNc1ccccc1[N+](=O)[O-]`, the melting point fell in the range of 35 to 38 °C.
Then `CCCCCCCCCCCCCCCCCO`, with 53.8 to 58 °C.
In turn, `CC1(C)CC=CCC1` gave a melting point of -74.4 to -74 °C.
The figure for `N#Cc1cccc(C(F)(F)F)c1` is 14.5 to 16 °C.
Then `CC(=O)Nc1ccccc1Cl`, with 87 to 89 °C; and `CC(C)(C)c1cc(C=O)cc(C(C)(C)C)c1O`, with 186 to 188 °C; and `CCC(C)(CC)CC`, with -91 to -90.9 °C.
`Oc1ccc(Cl)c(Cl)c1` returned a melting point of 66 to 68 °C.
The figure for `C=C(C)C(=O)OC` is -48 to -47.5 °C; for `FC(F)(F)c1ccc(Cl)nc1` it is 31 to 33 °C; for `CCCCCCCCOc1ccc(C(=O)c2ccccc2)c(O)c1` it is 48 to 48.5 °C.
The figure for `c1ccc(COc2ccccc2)cc1` is 39 to 40 °C; for `CCSC` it is -106 °C; for `CCN(CC)c1ccc2c(C)cc(=O)oc2c1` it is 70 to 74 °C.
Then `NC(=O)C(Cl)Cl`, with 99 to 99.4 °C; and `O=[N+]([O-])c1cc(Cl)ccc1Cl`, with 55 to 56 °C; and `Cc1ccc2[nH]cnc2c1`, with 112 to 116 °C.
`C/C=C/c1ccc(OC)cc1` returned a melting point of 21 to 23 °C.
With `CN1CCCC1=O`, the melting point is -24 to -23 °C.
The figure for `BrC(Br)Br` is 8 to 9 °C.
